{"source": "patent US20160106789A1", "about": "“Inhibition of Neurodegenerative Disease by Grape Seed Extract, Green Tea Extract and Probiotic Bacteria” (priority 2013, published 2016)", "key": {"Alzheimer patients": {"test_system": "Alzheimer patients", "experiment": "Effect on an Alzheimer patient: cognitive state and mini-mental state examination (MMSE)", "assay_type": "in vivo, human", "details": "daily, discontinued after two weeks; person, MMSE 13", "experimental": "Six weeks after the diagnosis, the patient's condition continued to deteriorate. The patient was administered memantine hydrochloride (Ebixa® tablet), an antidementia medicine, on a daily basis. Blood-pressure reducing medication was concomitantly administered and the blood pressure was measured to be on the average of 130/70 systolic/diastolic. However, the patient's deterioration appeared to be unaffected by the drug and administration of Ebixa was consequently discontinued after two weeks.\nThe following four months were characterized by sporadic memory lapses typical of a moderately severe affliction as well as behavioral deteriorations that occurred from time to time\nConsequently, the blood-pressure reducing medication was discontinued and the administration of GSE was reduced to one capsule per day (300 mg) as GSE is known to reduce blood pressure."}, "[1]": {"experiment": "General effect on mental faculties (memory) of a first subject", "assay_type": "in vivo, human", "details": "100 mg once daily over 40 days, after nocturnal sleep, same subject after ceasing GSE", "experimental": "A first subject consumed a capsule containing 300 mg of Meganatural-BP® over a period of 18 months, once daily, immediately after nocturnal sleep. […] The same subject ceased to consume GSE and immediately subsequent consumed capsules of 100 mg EGCG (Lyan) over a period of 40 days, once daily, immediately after nocturnal sleep. 300 mg of Meganatural-BP® and 60 mg of EGCG capsules were concomitantly administered to the same subject, immediately after nocturnal sleep, following the EGCG regime."}, "amyloid fibrils": {"test_system": "amyloid fibrils", "details": "in-vitro; cited from earlier work"}, "β-amyloid peptides": {"test_system": "β-amyloid peptides", "details": "cited from earlier work"}}, "note": "Where a name gives a salt, the structure may show the parent alone.", "data": [{"compound": "CC12CC3CC(C)(C1)CC(N)(C3)C2", "note": "[memantine hydrochloride]", "values": [{"measurement": "patient's deterioration", "setting": "Alzheimer patients", "value": "unaffected"}]}, {"compound": "Epigallocatechin-3-gallate [EGCG]", "values": [{"measurement": "improvement of memory", "setting": "[1]", "value": "No improvement of memory"}, {"measurement": "formation of β-sheet rich aggregation products such as amyloid fibrils", "setting": "amyloid fibrils", "value": "prevented"}, {"measurement": "generation of β-amyloid peptides", "setting": "β-amyloid peptides", "value": "reduces"}]}]}
